Experimental data taken from patent US12186295B2, “Ophthalmic compositions containing a nitric oxide releasing prostamide” (NICOX S.A., priority 2018, dated 2025).

Key:
[1] = Impagnatiello et al., cited from earlier work
[2] = Solubility in water and aqueous solutions; format: physicochemical; details: aqueous solution at pH 6.0 containing 0.5% (w/w) of macrogol 15-hydroxystearate (Kolliphor® HS15)

- solubility [2]: 0.070 % (w/w)
Compound: CCNC(=O)CCC/C=C\C[C@@H]1[C@@H](/C=C/[C@H](CCc2ccccc2)OC(=O)CCCCCO[N+](=O)[O-])[C@H](O)C[C@@H]1O [NCX 470, Hexanoic acid, 6-(nitrooxy)-, (1S,2E)-3-[(1R,2R,3S,5R)-2-[(2Z)-7-(ethylamino)-7-oxo-2-hepten-1-yl]-3,5-dihydroxycyclopentyl]-1-(2-phenylethyl)-2-propen-1-yl ester]
- IOP-lowering efficacy versus equimolar doses of bimatoprost ([1]; British Journal of Pharmacology (2018), vehicle 0.25% Tween 80, 0.02% BAK, 2% glycerine, 0.1% EDTA): greater IOP-lowering efficacy
- intra ocular pressure (IOP)-lowering agent ([1]; Invest Ophthalmol Vis Sci. 2015): effective
